# Residues, ends and D or L forms follow the SMILES beside them.
# Legend:
# [1] = system: K. pneumoniae FADDI-KP032; type: cell-based, Klebsiella pneumoniae; settings: FADDI-KP032
# Procedure, shortened: (§1)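 MICs were determined by broth microdilution in cation-adjusted Mueller–Hinton broth (CaMHB), with clinical isolates tested alongside ATCC strains.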
# [2] = system: K. pneumoniae FADDI-KP065; type: cell-based, Klebsiella pneumoniae; settings: FADDI-KP065
# Procedure, shortened: as §1
# A. baumannii AB5075 = experiment: Transcriptomic analysis (RNA-Seq) of bacteria; type: cell-based, Acinetobacter baumannii; settings: for logFC (Differential gene expression for all genes), Geneid ABUW_RS00005 / logFC (Differential gene expression for all genes), Geneid ABUW_RS00020 / logFC (Fold change), gene ABUW_RS00010 / logFC (Fold change), gene ABUW_RS00030 / logFC (Fold change), gene ABUW_RS00035 / logFC (Fold change), gene recF (ABUW_RS00015) / 4h_1h logFC (Differential gene expression for all genes), Geneid ABUW_RS00005 / 4h_1h logFC (Differential gene expression for all genes), Geneid ABUW_RS00010 / 4h_1h logFC (Differential gene expression for all genes), Geneid ABUW_RS00015 / 4h_1h logFC (Differential gene expression for all genes), Geneid ABUW_RS00020: RNA-Seq A. baumannii AB5075; for log2FC, gene ABUW_RS01945 (acyl-CoA thioesterase II) / log2FC, gene ABUW_RS02545 (acyl-CoA thioesterase) / log2FC, gene ABUW_RS05045 (acyl-CoA thioesterase) / log2FC, gene ABUW_RS17575 (acyl-CoA thioesterase): pathway Fatty Acid and Lipid Degradation; for 4h_1h logFC (Differential gene expression for all genes), Geneid ABUW_RS00005 / 4h_1h logFC (Differential gene expression for all genes), Geneid ABUW_RS00010 / 4h_1h logFC (Differential gene expression for all genes), Geneid ABUW_RS00015 / 4h_1h logFC (Differential gene expression for all genes), Geneid ABUW_RS00020: 4h vs 1h
# Protocol: Mid-log phase A. baumannii AB5075 (~10^8 CFU/mL) in CaMHB was treated with colistin (2 and 8 μg/mL), F287, F319 or F365 (equimolar concentration to colistin) for 1 and 4 h. Total RNA was extracted using TRIzol Reagent (Invitrogen, USA) and RNeasy Mini Kit (Qiagen, Germany). Quality check of RNA samples was conducted with NanoDrop (Thermo Fisher Scientific, USA) and Agilent 2100 Bioanalyzer (Agilent Technologies, USA) for sequencing (150 bp paired-end) at Genewiz (Shanghai, China). Raw reads were aligned to A. baumannii AB5075 genome (GCF_000963815, https://www.ncbi.nlm.nih.gov/assembly/GCF_000963815.1/) using subread-aligner (subread 2.0.1) and summarized by featureCounts (subread 2.0.1). Principal component analysis (PCA) was conducted with mixOmics 6.14.1 in R. Differentially expressed genes were determined using limma 3.46.0 with a combination of fold change ≥ 2 and false discovery rate (FDR, by Benjamini–Hochberg algorithm) adjusted P-value ≤ 0.05 (n = 3). Enrichment analysis of gene differential expression in AB5075 was conducted using BioCyc (A. baumannii AB5075, version 25.5). UpSetR 1.4.0, ComplexHeatmap 2.6.2 and circlize 0.4.13 were used for data visualization. Raw data were deposited in Short Reads Archive (SRA) database under accession numbers SRR15235669-SRR15235725.
structure (smiles),measurement,setting,value
"CCCCCCCC(=O)N[C@@H](CCN)C(=O)N[C@H](C(=O)N[C@@H](CCN)C(=O)N[C@H]1CCNC(=O)[C@H]([C@@H](C)O)NC(=O)[C@H](CCN)NC(=O)[C@H](CCN)NC(=O)[C@H](CC)NC(=O)[C@@H](CC(C)C)NC(=O)[C@H](CCN)NC1=O)[C@@H](C)O [Lipopeptide F319] (HELM PEPTIDE1{[CCCCCCCC(=O)[*:2]].[Dab].T.[Dab].[Dab].[Dab].[dL].[Abu].[Dab].[Dab].T}$PEPTIDE1,PEPTIDE1,5:R3-11:R2$$$V2.0)",MIC K. pneumoniae FADDI-KP032,[1],0.25 µg/mL
same,MIC K. pneumoniae FADDI-KP065,[2],<0.125 µg/mL
same,"logFC (Differential gene expression for all genes), Geneid ABUW_RS00005","A. baumannii AB5075; H vs Cont, 1h",-0.09763
same,"logFC (Differential gene expression for all genes), Geneid ABUW_RS00020","A. baumannii AB5075; H vs Cont, 1h",0.4439
same,"logFC (Fold change), gene ABUW_RS00010","A. baumannii AB5075; H vs Cont, 1h",0.5437
same,"logFC (Fold change), gene ABUW_RS00030","A. baumannii AB5075; H vs Cont, 1h",-0.5665
same,"logFC (Fold change), gene ABUW_RS00035","A. baumannii AB5075; H vs Cont, 1h",1.083
same,"logFC (Fold change), gene recF (ABUW_RS00015)","A. baumannii AB5075; H vs Cont, 1h",-0.2736
same,"log2FC, gene ABUW_RS01945 (acyl-CoA thioesterase II)","A. baumannii AB5075; H vs Cont, 1h",0.4348
same,"log2FC, gene ABUW_RS02545 (acyl-CoA thioesterase)","A. baumannii AB5075; H vs Cont, 1h",1.57
same,"log2FC, gene ABUW_RS05045 (acyl-CoA thioesterase)","A. baumannii AB5075; H vs Cont, 1h",0.3422
same,"log2FC, gene ABUW_RS17575 (acyl-CoA thioesterase)","A. baumannii AB5075; H vs Cont, 1h",-0.5597
same,"logFC (Differential gene expression for all genes), Geneid ABUW_RS00005","A. baumannii AB5075; H vs Cont, 4h",-0.2808
same,"logFC (Differential gene expression for all genes), Geneid ABUW_RS00020","A. baumannii AB5075; H vs Cont, 4h",-0.01751
same,"logFC (Fold change), gene ABUW_RS00010","A. baumannii AB5075; H vs Cont, 4h",1.173
same,"logFC (Fold change), gene ABUW_RS00030","A. baumannii AB5075; H vs Cont, 4h",-1.885
same,"logFC (Fold change), gene ABUW_RS00035","A. baumannii AB5075; H vs Cont, 4h",0.8498
same,"logFC (Fold change), gene recF (ABUW_RS00015)","A. baumannii AB5075; H vs Cont, 4h",-1.612
same,"log2FC, gene ABUW_RS01945 (acyl-CoA thioesterase II)","A. baumannii AB5075; H vs Cont, 4h",-0.7411
same,"log2FC, gene ABUW_RS02545 (acyl-CoA thioesterase)","A. baumannii AB5075; H vs Cont, 4h",1.194
same,"log2FC, gene ABUW_RS05045 (acyl-CoA thioesterase)","A. baumannii AB5075; H vs Cont, 4h",0.6506
same,"log2FC, gene ABUW_RS17575 (acyl-CoA thioesterase)","A. baumannii AB5075; H vs Cont, 4h",-1.957
same,"4h_1h logFC (Differential gene expression for all genes), Geneid ABUW_RS00005",A. baumannii AB5075; H,-0.8466
same,"4h_1h logFC (Differential gene expression for all genes), Geneid ABUW_RS00010",A. baumannii AB5075; H,0.6539
same,"4h_1h logFC (Differential gene expression for all genes), Geneid ABUW_RS00015",A. baumannii AB5075; H,-1.958
same,"4h_1h logFC (Differential gene expression for all genes), Geneid ABUW_RS00020",A. baumannii AB5075; H,0.139
same,"logFC (Differential gene expression for all genes), Geneid ABUW_RS00005","A. baumannii AB5075; L vs Cont, 1h",0.2742
same,"logFC (Differential gene expression for all genes), Geneid ABUW_RS00020","A. baumannii AB5075; L vs Cont, 1h",0.3388
same,"logFC (Fold change), gene ABUW_RS00010","A. baumannii AB5075; L vs Cont, 1h",0.1491
same,"logFC (Fold change), gene ABUW_RS00030","A. baumannii AB5075; L vs Cont, 1h",0.2512
same,"logFC (Fold change), gene ABUW_RS00035","A. baumannii AB5075; L vs Cont, 1h",-0.1567
same,"logFC (Fold change), gene recF (ABUW_RS00015)","A. baumannii AB5075; L vs Cont, 1h",0.1396
same,"log2FC, gene ABUW_RS01945 (acyl-CoA thioesterase II)","A. baumannii AB5075; L vs Cont, 1h",0.4255
same,"log2FC, gene ABUW_RS02545 (acyl-CoA thioesterase)","A. baumannii AB5075; L vs Cont, 1h",0.2059
same,"log2FC, gene ABUW_RS05045 (acyl-CoA thioesterase)","A. baumannii AB5075; L vs Cont, 1h",-0.2352
same,"log2FC, gene ABUW_RS17575 (acyl-CoA thioesterase)","A. baumannii AB5075; L vs Cont, 1h",0.153
same,"logFC (Differential gene expression for all genes), Geneid ABUW_RS00005","A. baumannii AB5075; L vs Cont, 4h",0.0635
same,"logFC (Differential gene expression for all genes), Geneid ABUW_RS00020","A. baumannii AB5075; L vs Cont, 4h",-0.109
same,"logFC (Fold change), gene ABUW_RS00010","A. baumannii AB5075; L vs Cont, 4h",0.1358
same,"logFC (Fold change), gene ABUW_RS00030","A. baumannii AB5075; L vs Cont, 4h",0.06806
same,"logFC (Fold change), gene ABUW_RS00035","A. baumannii AB5075; L vs Cont, 4h",0.1484
same,"logFC (Fold change), gene recF (ABUW_RS00015)","A. baumannii AB5075; L vs Cont, 4h",-0.1014
same,"log2FC, gene ABUW_RS01945 (acyl-CoA thioesterase II)","A. baumannii AB5075; L vs Cont, 4h",0.08809
same,"log2FC, gene ABUW_RS02545 (acyl-CoA thioesterase)","A. baumannii AB5075; L vs Cont, 4h",-0.3183
same,"log2FC, gene ABUW_RS05045 (acyl-CoA thioesterase)","A. baumannii AB5075; L vs Cont, 4h",0.2863
same,"log2FC, gene ABUW_RS17575 (acyl-CoA thioesterase)","A. baumannii AB5075; L vs Cont, 4h",0.3089
same,"4h_1h logFC (Differential gene expression for all genes), Geneid ABUW_RS00005",A. baumannii AB5075; L,-0.004361
same,"4h_1h logFC (Differential gene expression for all genes), Geneid ABUW_RS00010",A. baumannii AB5075; L,-0.867
same,"4h_1h logFC (Differential gene expression for all genes), Geneid ABUW_RS00015",A. baumannii AB5075; L,-0.3076
same,"4h_1h logFC (Differential gene expression for all genes), Geneid ABUW_RS00020",A. baumannii AB5075; L,-0.09503

# From article PMC8956739, “A synthetic lipopeptide targeting top-priority multidrug-resistant Gram-negative pathogens” (Nature Communications, 2022)
